According to patent publication US5643868A, “Method of treating or preventing type 1 diabetes by oral administration of insulin” (Autoimmune, Inc., priority 1995, dated 1997):
Where “and” joins values, the source holds several entries; their conditions need not be identical. Equal entries are not always repeated. Entries after “also recorded” stand apart in the source; their conditions may differ.

Tests used:
Assay type in all cases: in vivo
[1] = test system: NOD (non-obese diabetic) mice; assay: Effect of feeding porcine insulin on spontaneous diabetes in NOD mice (Example 1)
Description: NOD (non-obese diabetic mice) were obtained from Taconic Laboratories (Germantown, Mass.) at 4 weeks of age. There were a total of 30 animals in each of the groups mentioned below at the beginning of the experiment. At 41/2 weeks of age, animals were orally administered Porcine insulin (Novo Laboratories, Danbury, Conn.). Each animal received two treatments orally twice a week until 9 weeks of age. The mice were fed either saline (control) or 10 micrograms, 100 micrograms, or 1 milligram of Porcine insulin. The animals were fed (gavaged) with an 18 gauge ball-point needle (Popper and Sons, Inc., New Hyde Park, N.Y.). Beginning at 10 weeks the animals were then fed once a week for a total of 33 weeks. Beginning at 12 weeks the urine was tested weekly for the presence of glucose using Glucosuria test tape (Eli Lilly, Indianapolis, Ind.). If an animal tested 3+ or higher on the glucose urine test, a serum sample was taken and blood glucose measured using a glucose analyzer (Beckman). If the blood glucose was 220 or higher, the animals were classified as diabetic and then sacrificed.

[2] = test system: NOD mice; assay: Glucose post oral insulin in fasting 7 week NOD mice (Example 2); conditions: for blood glucose over the next 24 hours: animals in fasting state; for blood glucose after feeding: fasting 7 week old mice
Procedure: In order to determine whether any endocrinologic (i.e. direct lowering of blood sugar) effects occurred following the feeding of insulin, 7 week old NOD mice (5 mice per group) were fed 1 mg of porcine insulin or 1 mg of myelin basic protein (obtained from Pel Freez, Rogers, Ark.) as a control protein. Blood glucose was then measured over the next 24 hour period. As a positive control, a separate group of animals were injected subcutaneously with 20 micrograms of Porcine insulin. All animals were kept in the fasting state.

[3] = test system: NOD mice; assay: Preliminary experiments: insulitis in NOD mice fed insulin; conditions: fed 1 mg of insulin; data not shown
Description: Therefore, oral administration of insulin to NOD mice appeared to be affecting the infiltration of immune system cells into the pancreas and thus halting disease progression by preserving beta cell function.

[4] = test system: NOD mice; assay: Effect of aerosol administration of insulin on diabetes in NOD mice (Example 4); conditions: 0 to 1 mg insulin in aerosol form by nebulizer
Procedure: Insulin (0 to 1 mg as in Examples 1 and 2) will be administered to NOD mice as described above in Examples 1 and 2 except in aerosol form by nebulizer.

[5] = test system: NOD mice; assay: Treatment of initial stages of diabetes in NOD mice (Example 5); conditions: 0 to 1 mg insulin, oral and aerosol, hyperglycemic mice from weeks 12-20 of age
Procedure: Insulin (0 to 1 mg as in Examples 1 and 2) will be administered to NOD mice which are suffering from hyperglycemia in an oral and aerosol form. The treatments will begin by weeks 12-20 of age, by which the serum glucose levels are at hyperglycemic concentrations in a certain percentage of animals prior to onset of diabetes.

Substance | development of diabetes ([1]; 1 mg porcine insulin fed orally (gavage), diabetic = blood glucose 220 or higher) | development of diabetes ([1]; 10 micrograms porcine insulin fed orally) | incidence of diabetes, all oral doses tested ([1]; 10 micrograms, 100 micrograms, 1 mg oral, dose-dependent) | development of diabetes ([1]; 100 micrograms porcine insulin fed orally) | blood sugar of individual animals which developed diabetes ([1]; fed 10 micrograms of insulin) | blood sugar of individual animals that became diabetic ([1]; fed 100 micrograms of insulin) | treated animals that failed to develop diabetes ([1]; highest dose of oral insulin (1 mg)) | endocrinologic (metabolic) effects of feeding ([2]; 1 mg fed orally) | blood glucose over the next 24 hours ([2]; 1 mg fed orally) | blood glucose after feeding ([2]; 1 mg fed orally) | decrease in the glucose level ([2]; 20 micrograms porcine insulin injected subcutaneously (positive control), fasting) | period over which the drop in glucose persisted ([2]; 20 micrograms porcine insulin subcutaneously, fasting) | inflammatory immune system cells surrounding the pancreas (insulitis) vs PBS-fed mice [3] | prevention of symptoms (hyperglycemia) of Type 1 diabetes [4] | beta cell function [5] | serum glucose concentrations [5]
insulin | none of the mice went on to develop diabetes; also recorded: no diabetes developed in any of the animals; also recorded: None of the animals developed diabetes | diabetes developed | lower incidence of diabetes at all doses; also recorded: reduced the numbers of these mice which subsequently went on to develop diabetes | diabetes developed | 330 mg/dL and 420 mg/dL and 315 mg/dL and 459 mg/dL and 520 mg/dL and 487 mg/dL | 500 mg/dL and 290 mg/dL and 600 mg/dL and 450 mg/dL | 100% | no endocrinologic (metabolic) effects | gradual decrease in blood glucose | no drop in the blood glucose | approximately 80 mg % | 4 h | fewer inflammatory immune system cells surrounding the pancreas | effective in preventing the manifestation of symptoms | preservation of beta cell function | reduction in serum glucose concentrations to near normal levels
myelin basic protein | – | – | – | – | – | – | – | – | gradual decrease in blood glucose | no drop in the blood glucose | – | – | – | – | – | –
